Results taken from patent publication US9688710B2, “Inhibitors of sodium glucose cotransporter 1” (LEXICON PHARMACEUTICALS, INC., priority 2012, dated 2017).

What was measured:
[1] = molecular target: Human sodium/glucose co-transporter type 1 (SGLT1) (Homo sapiens (Human), UniProt P13866); test: In vitro human SGLT1 inhibition assay (14C-AMG uptake); type: cell-based; settings: HEK293 cells expressing human HA-SGLT1, 14C-AMG uptake
Protocol: Human sodium/glucose co-transporter type 1 (SGLT1; accession number NP_000334; GI: 4507031) was cloned into pIRESpuro2 vector for mammalian expression (construct: HA-SGLT1-pIRESpuro2).
HEK293 cells were transfected with the human HA-SGLT1-pIRESpuro2 vector and the bulk stable cell line was selected in presence of 0.5 μg/mL of puromycin. Human HA-SGLT1 cells were maintained in DMEM media containing 10% FBS, 1% GPS and 0.5 μg/mL of puromycin.
The HEK293 cells expressing the human HA-SGLT1 were seeded in 384 well plates (30,000 cells/well) in DMEM media containing 10% FBS, 1% GPS and 0.5 μg/mL of puromycin, then incubated overnight at 37 C, 5% CO2. Cells were then washed with uptake buffer (140 mM NaCl, 2 mM KCl, 1 mM CaCl2, 1 mM MgCl2, 10 mM HEPES, 5 mM Tris, 1 mg/mL bovine serum albumin (BSA), pH 7.3). Twenty microliters of uptake buffer with or without testing compounds were added to the cells. Then, 20 microliters of uptake buffer containing ^14C-AMG (100 nCi) were also added to cells. The cell plates were incubated at 37° C., 5% CO2 for 1-2 hours. After washing the cells with uptake buffer, scintillation fluid was added (40 microliters/well) and ^14C-AMG uptake was measured by counting radioactivity using a scintillation coulter (TopCoulter NXT; Packard Instruments).

[2] = molecular target: Human sodium/glucose co-transporter type 2 (SGLT2) (Homo sapiens (Human), UniProt P31639); test: In vitro human SGLT2 inhibition assay (14C-AMG uptake); type: cell-based; settings: HEK293 cells expressing human HA-SGLT2, 14C-AMG uptake
Protocol: Human sodium/glucose co-transporter type 2 (SGLT2; accession number P31639; GI:400337) was cloned into pIRESpuro2 vector for mammalian expression (construct: HA-SGLT2-pIRESpuro2).
HEK293 cells were transfected with the human HA-SGLT2-pIRESpuro2 vector and the bulk stable cell line was selected in presence of 0.5 μg/mL of puromycin. Human HA-SGLT2 cells were maintained in DMEM media containing 10% FBS, 1% GPS and 0.5 μg/mL of puromycin.
The HEK293 cells expressing the human HA-SGLT2 were seeded in 384 well plates (30,000 cells/well) in DMEM media containing 10% FBS, 1% GPS and 0.5 μg/mL of puromycin, then incubated overnight at 37 C, 5% CO2. Cells were then washed with uptake buffer (140 mM NaCl, 2 mM KCl, 1 mM CaCl2, 1 mM MgCl2, 10 mM HEPES, 5 mM Tris, 1 mg/mL bovine serum albumin (BSA), pH 7.3). Twenty microliters of uptake buffer with or without testing compounds were added to the cells. Then, 20 microliters of uptake buffer containing ^14C-AMG (100 nCi) were added to the cells. The cell plates were incubated at 37° C., 5% CO2 for 1-2 hours. After washing the cells with uptake buffer, scintillation fluid was added (40 microliters/well) and ^14C-AMG uptake was measured by counting radioactivity using a scintillation coulter (TopCoulter NXT; Packard Instruments).

Chain of Human sodium/glucose co-transporter type 2 (SGLT2) (P31639 whole entry): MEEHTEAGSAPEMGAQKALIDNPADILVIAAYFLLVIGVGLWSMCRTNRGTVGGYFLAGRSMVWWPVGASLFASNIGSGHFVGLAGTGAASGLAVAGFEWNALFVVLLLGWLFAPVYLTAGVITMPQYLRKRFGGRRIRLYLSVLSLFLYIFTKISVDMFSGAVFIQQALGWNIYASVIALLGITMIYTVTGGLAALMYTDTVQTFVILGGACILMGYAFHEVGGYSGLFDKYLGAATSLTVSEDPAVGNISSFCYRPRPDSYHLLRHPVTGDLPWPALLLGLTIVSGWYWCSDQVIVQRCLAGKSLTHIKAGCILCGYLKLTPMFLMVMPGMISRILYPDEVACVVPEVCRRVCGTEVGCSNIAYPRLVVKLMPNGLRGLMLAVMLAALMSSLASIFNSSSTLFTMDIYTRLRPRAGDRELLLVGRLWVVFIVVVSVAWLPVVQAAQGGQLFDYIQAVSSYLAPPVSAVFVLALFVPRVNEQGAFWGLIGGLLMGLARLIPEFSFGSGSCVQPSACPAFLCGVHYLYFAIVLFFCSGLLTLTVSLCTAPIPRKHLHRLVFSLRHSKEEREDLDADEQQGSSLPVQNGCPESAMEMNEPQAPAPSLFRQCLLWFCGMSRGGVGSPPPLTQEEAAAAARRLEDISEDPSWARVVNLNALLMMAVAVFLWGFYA
Chain of Human sodium/glucose co-transporter type 1 (SGLT1) (P13866 whole entry): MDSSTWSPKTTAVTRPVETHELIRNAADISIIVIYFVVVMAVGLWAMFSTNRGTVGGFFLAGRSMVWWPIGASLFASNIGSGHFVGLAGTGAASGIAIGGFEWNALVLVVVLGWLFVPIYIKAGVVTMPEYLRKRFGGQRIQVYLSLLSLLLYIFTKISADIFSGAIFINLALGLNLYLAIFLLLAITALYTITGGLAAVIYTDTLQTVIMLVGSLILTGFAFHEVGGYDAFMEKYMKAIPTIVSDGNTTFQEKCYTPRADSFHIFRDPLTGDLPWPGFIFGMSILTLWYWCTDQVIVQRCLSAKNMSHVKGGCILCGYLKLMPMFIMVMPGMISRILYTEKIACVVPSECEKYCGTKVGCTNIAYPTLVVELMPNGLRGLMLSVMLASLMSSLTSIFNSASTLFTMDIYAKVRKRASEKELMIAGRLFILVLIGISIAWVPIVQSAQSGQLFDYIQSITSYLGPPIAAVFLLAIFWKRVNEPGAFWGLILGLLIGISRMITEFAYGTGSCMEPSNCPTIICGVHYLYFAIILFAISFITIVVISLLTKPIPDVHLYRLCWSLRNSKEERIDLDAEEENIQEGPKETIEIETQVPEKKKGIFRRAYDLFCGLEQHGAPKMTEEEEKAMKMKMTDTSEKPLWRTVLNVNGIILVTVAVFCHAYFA

Compound	IC50 [1]	IC50 [2]
CS[C@H]1O[C@@H](c2ccc(C)c(Cc3ccc(CCCCNC(=O)NC(CO)(CO)CO)cc3)c2)[C@H](O)[C@@H](O)[C@@H]1O [1-(1,3-dihydroxy-2-(hydroxymethyl)propan-2-yl)-3-(4-(4-(2-methyl-5-((2S,3R,4R,5S,6R)-3,4,5-trihydroxy-6-(methylthio)tetrahydro-2H-pyran-2-yl)benzyl)phenyl)butyl)urea]	< 10 nM	< 10 nM
CS[C@H]1OC(c2ccc(C)c(Cc3ccc(OCCNC(=O)NCC(C)(C)C(N)=O)cc3)c2)[C@H](O)[C@@H](O)[C@@H]1O (stereo partly drawn) [2,2-dimethyl-3-(3-(2-(4-(2-methyl-5-((3R,4R,5S,6R)-3,4,5-trihydroxy-6-(methylthio)tetrahydro-2H-pyran-2-yl)benzyl)phenoxy)ethyl)ureido)propanamide]	< 10 nM	< 10 nM
CS[C@H]1O[C@@H](c2ccc(Cl)c(Cc3ccc(OCCN)cc3)c2)[C@H](O)[C@@H](O)[C@@H]1O [(2S,3R,4R,5S,6R)-2-(3-(4-(2-aminoethoxy)benzyl)-4-chlorophenyl-6-(methylthio)tetrahydro-2H-pyran-3,4,5-triol]	< 100 nM	< 10 nM
CS[C@H]1O[C@@H](c2ccc(Cl)c(Cc3ccc(OCC(=O)NC(C)(C)C(=O)N4CCN(C)CC4)cc3)c2)[C@H](O)[C@@H](O)[C@@H]1O [2-(4-(2-chloro-5-((2S,3R,4R,5S,6R)-3,4,5-trihydroxy-6-(methylthio)tetrahydro-2H-pyran-2-yl)benzyl)phenoxy)-N-(2-methyl-1-(4-methylpiperazin-1-yl)-1-oxopropan-2-yl)acetamide]	< 100 nM	< 10 nM
CS[C@H]1O[C@@H](c2ccc(C)c(Cc3ccc(CCCCCC(=O)NC(C)(C)C(N)=O)cc3)c2)[C@H](O)[C@@H](O)[C@@H]1O [N-(1-amino-2-methyl-1-oxopropan-2-yl)-6-(4-(2-methyl-5-((2S,3R,4R,5S,6R)-3,4,5-trihydroxy-6-(methylthio)tetrahydro-2H-pyran-2-yl)benzyl)phenyl)hexanamide]	< 100 nM	< 10 nM
CS[C@H]1OC(c2ccc(C)c(Cc3ccc(OCCCNCC(C)(C)CO)cc3)c2)[C@H](O)[C@@H](O)[C@@H]1O (stereo partly drawn) [(3R,4R,5S,6R)-2-(3-(4-(3-((3-hydroxy-2,2-dimethylpropyl)amino)propoxy)benzyl)-4-methylphenyl)-6-(methylthio)tetrahydro-2H-pyran-3,4,5-triol]	< 10 nM	< 10 nM
CS[C@H]1O[C@@H](c2ccc(C)c(Cc3ccc(CCCC(=O)NC(C)(C)C(=O)O)cc3)c2)[C@H](O)[C@@H](O)[C@@H]1O [2-methyl-2-(4-(4-(2-methyl-5-((2S,3R,4R,5S,6R)-3,4,5-trihydroxy-6-(methylthio)tetrahydro-2H-pyran-2-yl)benzyl)phenyl)butanamido)propanoic acid]	< 100 nM	< 10 nM
CS[C@H]1O[C@@H](c2ccc(C)c(Cc3ccc(CCCCNC(=O)N4CCN(C)CC4)cc3)c2)[C@H](O)[C@@H](O)[C@@H]1O [4-methyl-N-(4-(4-(2-methyl-5-((2S,3R,4R,5S,6R)-3,4,5-trihydroxy-6-(methylthio)tetrahydro-2H-pyran-2-yl)benzyl)phenyl)butyl)piperazine-1-carboxamide]	< 100 nM	< 10 nM
CS[C@H]1O[C@@H](c2ccc(C)c(Cc3ccc(CCCC(=O)NC(C)(C)C(=O)N(C)CCN(C)C)cc3)c2)[C@H](O)[C@@H](O)[C@@H]1O [N-(1-((2-(dimethylamino)ethyl)(methyl)amino)-2-methyl-1-oxopropan-2-yl)-4-(4-(2-methyl-5-((2S,3R,4R,5S,6R)-3,4,5-trihydroxy-6-(methylthio)tetrahydro-2H-pyran-2-yl)benzyl)phenyl)butanamide]	< 10 nM	< 10 nM
CS[C@H]1O[C@@H](c2ccc(C)c(Cc3ccc(CCCC(=O)NC(CO)(CO)CO)cc3)c2)[C@H](O)[C@@H](O)[C@@H]1O [N-(1,3-dihydroxy-2-(hydroxymethyl)propan-2-yl)-4-(4-(2-methyl-5-((2S,3R,4R,5S,6R)-3,4,5-trihydroxy-6-(methylthio)tetrahydro-2H-pyran-2-yl)benzyl)phenyl)butanamide]	< 10 nM	< 10 nM
CS[C@H]1O[C@@H](c2ccc(Cl)c(Cc3ccc(OCCNC4CCNCC4)cc3)c2)[C@H](O)[C@@H](O)[C@@H]1O [(2S,3R,4R,5S,6R)-2-(4-chloro-3-(4-(2-(piperidin-4-ylamino)ethoxy)benzyl)phenyl)-6-(methylthio)tetrahydro-2H-pyran-3,4,5-triol]	< 100 nM	< 10 nM
CS[C@H]1O[C@@H](c2ccc(Cl)c(Cc3ccc(OCCCC(=O)NCC(C)(C)C(N)=O)cc3)c2)[C@H](O)[C@@H](O)[C@@H]1O [N-(3-amino-2,2-dimethyl-3-oxopropyl)-4-(4-(2-chloro-5-((2S,3R,4R,5S,6R)-3,4,5-trihydroxy-6-(methylthio)tetrahydro-2H-pyran-2-yl)benzyl)phenoxy)butanamide]	< 100 nM	< 10 nM
CS[C@H]1O[C@@H](c2ccc(Cl)c(Cc3ccc(OCCCC(=O)NC(CO)(CO)CO)cc3)c2)[C@H](O)[C@@H](O)[C@@H]1O [4-(4-(2-chloro-5-((2S,3R,4R,5S,6R)-3,4,5-trihydroxy-6-(methylthio)tetrahydro-2H-pyran-2-yl)benzyl)phenoxy)-N-(1,3-dihydroxy-2-(hydroxymethyl)propan-2-yl)butanamide]	< 100 nM	< 10 nM
CS[C@H]1O[C@@H](c2ccc(C)c(Cc3ccc(OCCCC(=O)NC4(C(=O)N5CCN(C)CC5)CCCC4)cc3)c2)[C@H](O)[C@@H](O)[C@@H]1O [4-(4-(2-methyl-5-((2S,3R,4R,5S,6R)-3,4,5-trihydroxy-6-(methylthio)tetrahydro-2H-pyran-2-yl)benzyl)phenoxy)-N-(1-(4-methylpiperazine-1-carbonyl)cyclopentyl)butanamide]	< 10 nM	< 10 nM
CS[C@H]1O[C@@H](c2ccc(Cl)c(Cc3ccc(OCC(=O)O)cc3)c2)[C@H](O)[C@@H](O)[C@@H]1O [2-(4-(2-chloro-5-((2S,3R,4R,5S,6R)-3,4,5-trihydroxy-6-(methylthio)tetrahydro-2H-pyran-2-yl)benzyl)phenoxy)acetic acid]	< 1000 nM	< 100 nM
CCN(CC)C(=O)CCCOc1ccc(Cc2cc([C@@H]3O[C@H](SC)[C@@H](O)[C@H](O)[C@H]3O)ccc2Cl)cc1 [4-(4-(2-chloro-5-((2S,3R,4R,5S,6R)-3,4,5-trihydroxy-6-(methylthio)tetrahydro-2H-pyran-2-yl)benzyl)phenoxy)-N,N-diethylbutanamide]	< 100 nM	< 10 nM
CS[C@H]1O[C@@H](c2ccc(C)c(Cc3ccc(OCCCC(=O)NC(C)(C)C(=O)N4CCOCC4)cc3)c2)[C@H](O)[C@@H](O)[C@@H]1O [N-(2-methyl-1-morpholino-1-oxopropan-2-yl)-4-(4-(2-methyl-5-((2S,3R,4R,5S,6R)-3,4,5-trihydroxy-6-(methylthio)tetrahydro-2H-pyran-2-yl)benzyl)phenoxy)butanamide]	< 10 nM	< 10 nM
CS[C@H]1O[C@@H](c2ccc(C)c(Cc3ccc(/C=C/CCC(=O)NC(C)(C)C(N)=O)cc3)c2)[C@H](O)[C@@H](O)[C@@H]1O [(E)-N-(1-amino-2-methyl-1-oxopropan-2-yl)-5-(4-(2-methyl-5-((2S,3R,4R,5S,6R)-3,4,5-trihydroxy-6-(methylthio)tetrahydro-2H-pyran-2-yl)benzyl)phenyl)pent-4-enamide]	< 10 nM	< 10 nM
